From patent publication US9708325B2, “Sulfonimidoylpurinone compounds and derivatives for the treatment and prophylaxis of virus infection” (Hoffmann-La Roche Inc., priority 2015, dated 2017)
Values after ≈ are worked out from the molar mass of the structure shown.

Columns and labels:
[1] = LYSA solubility; format: physicochemical; conditions: for solubility thermodynamic: 0.05 M phosphate buffer, pH 6.5, aqueous buffer, thermodynamic from solid
Description: LYSA solubility assay is used to determine the aqueous solubility of a compound. Samples were prepared in duplicate from 10 mM DMSO stock solution. […] After one night, the solutions were filtered using a microtiter filter plate. Then the filtrate and its 1/10 dilution were analyzed by HPLC-UV.

[2] = GSH adduct screening assay; format: in vitro ADME, rat and human; set-up: key: No flag: No Flag: no GSH adduct formation observed when compared to control (DMSO); conditions: 20 μM, RLM and HLM, 60 minutes
Description: The formation of reactive metabolites is an unwanted drug property because of the idiosyncratic clinical adverse effect. GSH adduct formation is used to evaluate the formation of reactive metabolites in vitro. Positive controls were Diclofenac, Troglitazone, Nefazodone and mGluR5. Solvent control was DMSO.
All compounds including positive and solvent control were incubated using a 96-deep-well plate (Eppendorf) at 20 μM (addition of 1 μL of 10 mM DMSO stock solution) in 450 μL of 0.1 M sodium phosphate buffer at pH 7.4 containing rat liver microsomes (RLM) and human liver microsomes (HLM). Microsomal protein concentration is 1 mg/mL. Pipetting was performed using a TECAN pipetting robot. The buffer was prepared at room temperature by combining 2.62 g NaH2PO4.1H2O and 14.43 g Na2HPO4.2H2O dissolved in H2O (Millipore, >18 MΩ) to a weight of 1000 g (pH 7.4). After 5 minutes of pre-incubation at 37° C. the reaction was started by adding 50 μL of buffer containing GSH (100 mM) and NADPH (20 mM). Fresh stock solutions of GSH and NADPH were prepared straight before each experiment. The final concentrations were […] for GSH and 1 mM for NADPH. After 60 minutes of incubation at 37° C. (shaking at 800 rpm) the reaction is quenched with 500 μL of cold acetonitrile and centrifuged at 5000×g at 25° C. for 11 minutes. Before LC-MS/MS analysis the supernatant was split to two fractions, 450 μL and 400 each followed by evaporation using a N2 stream at 35° C. to a volume of approximately […].
Sample clean-up and chromatography of analytes were performed on-line by a column-switching set-up of two HPLC columns. From each sample 50 μL were injected (Shimadzu SilHTC) and loaded with water containing 0.1% formic acid onto a trapping column (Waters Oasis HLB 2.1×10 mm, 25 μm) with a flow rate of 0.3 mL/min. After 1.5 min the trapped analytes were then flushed (included a change in flow direction on the trapping column) onto an analytical column (Waters Atlantis T3 2.1×100 mm, 3 μm) with a total flow of 0.2 mL/min starting with 95/5% water containing 0.1% formic acid/acetonitrile. The fraction of acetonitrile was increased to 20% acetonitrile between 2 and 2.5 minutes, to 70% at 10 minutes and to 98% at 11 minutes. After 12 minutes the analytical column was equilibrated to start conditions (5% acetonitrile). […] The total running time was 14 min per sample.
A triple quadrupole-linear ion trap mass spectrometer 4000 Qtrap equipped with an electrospray ionization source (Turbo V) was used, both from Applied Biosystems/MDS Sciex. Based on a published method of Dieckhaus et al. (2005) a precursor ion survey scan (PreIS) method was used to detect GSH-conjugates in negative ion mode. Briefly, as survey scan ions (400 to 900 amu within 2 seconds) are scanned for precursors of m/z 272 amu, the ion spray voltage was −4200 V, the source temperature 500° C., nitrogen was used as curtain and collision gas. If the parent molecule exceeds a molecular mass of 500 the scan range was changed to 500 amu to 1000 amu within 2 seconds. For signals in the survey scan exceeding 7500 cts (that was approximately 5 times of the background signal), enhanced resolution scan and enhanced product ion scan were triggered which allowed isotope determination and confirmation of a positive GSH adduct by the presence of diagnostic fragment ions. Further instrument settings were as following: Curtain gas: 30 psi, CAD gas: 10 psi Gas 1: 30 psi, Gas 2: 50 psi, declustering potential: −70 V, entrance potential: −10 V, collision energy: −24 V, and cell exit potential −15 V. Data acquisition was performed using Analyst 1.4.2, data analysis, i.e. sample control (solvent) comparisons were performed with Metabolite ID 1.3 (Applied Biosystems/MDS Sciex). (reference: Dieckhaus, C. M., Fernandez-Metzler, C. L., King, R., Krolikowski, P. H., and Baillie, T. A. (2005). Negative ion tandem mass spectrometry for the detection of glutathione conjugates. Chem Res Toxicol 18, 630-638).

[3] = Metabolic stability in human liver microsomes; conditions: 1 μM test compound, 0.5 mg/mL microsomal protein; 6.15 mL/min/kg is the limitation of assay sensitivity
In short: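 Test compound at 1 μM with 0.5 mg/mL microsomal protein in 100 mM potassium phosphate, pH 7.4, 37 °C, 10 min preincubation, reaction started with NADPH regenerating system. Sampled at 0, 3, 6, 9, 15 and 30 min, quenched with cold ACN, remaining parent by LC-MS/MS. No-NADPH controls at 0 and 30 min.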

| SMILES | solubility thermodynamic [1] [µg/mL] | GSH results [2] | LYSA ([1]; 0.05 M phosphate buffer (pH 6.5)) [µg/mL] | Human Liver Microsome Clearance [3] [mL/min/kg] |
| --- | --- | --- | --- | --- |
| CCCS(=N)(=O)c1nc(N)c2[nH]c(=O)n(Cc3ccccc3)c2n1 (single isomer, unassigned) [Example 4-A, 6-Amino-9-benzyl-2-(propylsulfonimidoyl)-7H-purin-8-one] | 56 (≈ 162 µM) | No flag | – | – |
| CCCS(=N)(=O)c1nc(N)c2[nH]c(=O)n(Cc3ccccc3)c2n1 (single isomer, unassigned) [Example 4-B, 6-Amino-9-benzyl-2-(propylsulfonimidoyl)-7H-purin-8-one] | – | No flag | 50 | – |
| CCCS(=N)(=O)c1nc(N)c2[nH]c(=O)n(Cc3ccc(C)cc3)c2n1 (single isomer, unassigned) [Example 29-A, 6-Amino-2-(propylsulfonimidoyl)-9-(p-tolylmethyl)-7H-purin-8-one] | 6 (≈ 16.6 µM) | No flag | – | <6.15 |
| CCS(=N)(=O)c1nc(N)c2[nH]c(=O)n(Cc3ccc(Cl)cc3)c2n1 (single isomer, unassigned) [Example 70-A, 6-Amino-9-[(4-chlorophenyl)methyl]-2-(ethylsulfonimidoyl)-7H-purin-8-one] | – | No flag | – | <6.15 |
| CCS(=N)(=O)c1nc(N)c2[nH]c(=O)n(Cc3ccc(Cl)cc3)c2n1 (single isomer, unassigned) [Example 70-B, 6-Amino-9-[(4-chlorophenyl)methyl]-2-(ethylsulfonimidoyl)-7H-purin-8-one] | 5 (≈ 13.6 µM) | No flag | – | <6.15 |
| CCS(=N)(=O)c1nc(N)c2[nH]c(=O)n(Cc3ccc(C)cc3)c2n1 (single isomer, unassigned) [Example 71-A, 6-Amino-2-(ethylsulfonimidoyl)-9-(p-tolylmethyl)-7H-purin-8-one] | 13 (≈ 37.5 µM) | No flag | – | <6.15 |
| CCCS(=N)(=O)c1nc(N)c2[nH]c(=O)n(Cc3ccccc3)c2n1 (centres unmarked) [Example 4, 6-Amino-9-benzyl-2-(propylsulfonimidoyl)-7H-purin-8-one] | 21 (≈ 60.6 µM) | No flag | – | <6.15 |
| CCCS(=N)(=O)c1nc(N)c2[nH]c(=O)n(Cc3ccc(Cl)cc3)c2n1 (centres unmarked) [Example 9, 6-Amino-9-[(4-chlorophenyl)methyl]-2-(propylsulfonimidoyl)-7H-purin-8-one] | – | No flag | – | – |
| CCCS(=N)(=O)c1nc(N)c2[nH]c(=O)n(Cc3ccc(F)c(F)c3)c2n1 (centres unmarked) [Example 27, 6-Amino-9-(3,4-difluorophenylmethyl)-2-(propylsulfonimidoyl)-7H-purin-8-one] | 7 (≈ 18.3 µM) | No flag | – | – |
| CCCS(=N)(=O)c1nc(N)c2[nH]c(=O)n(Cc3ccc(C)nc3)c2n1 (centres unmarked) [Example 34, 6-Amino-9-[(6-methyl-3-pyridyl)methyl]-2-(propylsulfonimidoyl)-7H-purin-8-one] | – | No flag | – | <6.15 |
| CCCS(=N)(=O)c1nc(N)c2[nH]c(=O)n(Cc3ccc(C(=O)O)cc3)c2n1 (centres unmarked) [Example 39, 4-[[6-Amino-8-oxo-2-(propylsulfonimidoyl)-7H-purin-9-yl]methyl]benzoic acid] | > 520 | No flag | – | <6.15 |
